In patent publication US12281125B2, “Rapamycin derivatives” (NOVARTIS AG, priority 2018, dated 2025):

Columns and labels:
[1] = target: T1, FKBP25-rapalog-mTOR (amino acids 2019-2112) ternary complex (Homo sapiens, UniProt P42345+Q00688); experiment: SPR ternary complex formation, rapalog bound to FKBP25 with mTOR; format: binding; settings: rapalog bound to FKBP with mTOR, read-out: FKBP25 apparent affinity KD for ternary complex formation
T1 construct: his^6-mTOR (amino acids 2019-2112) was diluted in buffer; made in house; host or cells: E. coli
T1 sequence (Q00688 whole entry, the tested form may be a part): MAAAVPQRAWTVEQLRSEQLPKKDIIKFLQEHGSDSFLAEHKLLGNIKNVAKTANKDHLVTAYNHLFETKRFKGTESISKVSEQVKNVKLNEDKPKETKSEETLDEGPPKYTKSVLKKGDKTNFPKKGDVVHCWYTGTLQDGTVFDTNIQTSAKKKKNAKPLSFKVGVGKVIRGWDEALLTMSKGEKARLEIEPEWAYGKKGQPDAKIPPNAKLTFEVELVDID
T1 sequence (P42345 2019-2112 limits assumed): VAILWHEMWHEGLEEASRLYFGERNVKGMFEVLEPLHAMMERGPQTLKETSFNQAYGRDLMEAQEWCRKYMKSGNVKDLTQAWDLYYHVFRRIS
Description: (§1) N-terminal avi-his6-tagged FKBP fusion proteins were expressed in E. coli and purified with nickel chromatography using standard procedures. Biotinylated his-avi-FKBPs were immobilized on a streptavidin chip using a Biacore 8K (GE Healthcare). To determine the kinetics-affinity of the rapalogs for FKBPs, rapalogs were diluted in DMSO to 50× working concentration. Next, 3.1 uLs of each rapalog solution was added to 150 uLs of buffer (50 mM Tris pH 7.5/150 mM NaCl/0.01% Tween 20/1 mM DTT) in a 384 deep well plate (greiner bio-one/78127) and mixed using a Biomek FX. The rapalog solution gradients (6 concentrations/2 fold dilutions, 3.1-100 nM or 31-1000 nM or 310-10000 nM) were then injected at 45 uL/min for 120 seconds: contact time and dissociation time was 1800 seconds in running buffer (50 mM Tris pH 7.5/150 mM NaCl/0.01% Tween 20/1 mM DTT/2% DMSO). The single-cycle kinetics data were fit to a 1:1 binding model to measure the association rate ka (1/Ms), the dissociation rate kd (1/s) and the affinity KD (M). […] 3.1 uLs of the 500 μM rapalog solutions were added to 150 uLs of the mTOR samples in a 384 deep well plate (greiner bio-one/78127) and mixed using a Biomek FX. The mTOR solution gradients were then injected at 45 uL/min for 120 seconds: contact time and dissociation time was 1800 seconds in running buffer (50 mM Tris pH 7.5/150 mM NaCl/0.01% Tween 20/1 mM DTT/2% DMSO). […]

[2] = test system: mTORC1 activity, S6K1 (Thr389) in FKBP12/12.6/13/52/51 knock-out 293T cells; experiment: S6K1(Thr389) phosphorylation ELISA in FKBP12/12.6/13/52/51 knock-out 293T cells; format: cell-based
Source text: (§2) A CRISPR/Cas9 system was used to deliver ribonucleoprotein complexes containing guide RNA (gRNA) sequences that target FKBP12
(§3) ([…], location 35620248) into 293T cells, using the Amaxa® 4D-Nucleofector™ X Kit (Lonza, V4XC-2032). Cell clones were screened by immunoblotting with anti-FKBP-specific antibodies: FKBP12 (Novus, NB300-508), FKBP12.6 (Abnova, H00002281-M01), FKBP13 (R&D Systems, MAB4356), FKBP25 (R&D Systems, MAB3955), FKBP52 (Cell signaling Technology, #11826) and FKBP51 (Cell signaling Technology, #12210). […] Quintuple FKBP12/12.6/13/52/51 knock-out and FKBP12/12.6/25/52/51 knock-out cells were generated by sequentially knocking out five FKBP genes.
(§4) WT, FKBP12 knock-out, FKBP12/12.6/13/52/51 knock-out or FKBP12/12.6/25/52/51 knock-out 293T cells were plated at a density of 30,000 cells per well in poly-D-Lysine coated 96-well plates (Corning, #354461) in Dulbecco's modified Eagle's medium (ThermoFisher, #11995-065) supplemented with 10% fetal bovine serum (ThermoFisher, #16140-071). Cells were incubated at 37° C., 5% CO2 for 48 hours until they reached ˜80% confluence. […] Media supplemented with blank Dimethyl sulfoxide (DMSO) was used as a control for both compounds. Phosphorylated amounts of S6K1 (Thr389) were detected by a sandwich ELISA kit (Cell signaling, #7063C) following the manufacture's protocol.

[3] = target: T2, FKBP51-rapalog-mTOR (amino acids 2019-2112) ternary complex (Homo sapiens, UniProt P42345+Q13451); experiment: SPR ternary complex formation, rapalog bound to FKBP51 with mTOR; format: binding; settings: rapalog bound to FKBP with mTOR, read-out: FKBP51 apparent affinity KD for ternary complex formation
T2 construct: his^6-mTOR (amino acids 2019-2112) was diluted in buffer; made in house; host or cells: E. coli
T2 sequence (Q13451 whole entry, the tested form may be a part): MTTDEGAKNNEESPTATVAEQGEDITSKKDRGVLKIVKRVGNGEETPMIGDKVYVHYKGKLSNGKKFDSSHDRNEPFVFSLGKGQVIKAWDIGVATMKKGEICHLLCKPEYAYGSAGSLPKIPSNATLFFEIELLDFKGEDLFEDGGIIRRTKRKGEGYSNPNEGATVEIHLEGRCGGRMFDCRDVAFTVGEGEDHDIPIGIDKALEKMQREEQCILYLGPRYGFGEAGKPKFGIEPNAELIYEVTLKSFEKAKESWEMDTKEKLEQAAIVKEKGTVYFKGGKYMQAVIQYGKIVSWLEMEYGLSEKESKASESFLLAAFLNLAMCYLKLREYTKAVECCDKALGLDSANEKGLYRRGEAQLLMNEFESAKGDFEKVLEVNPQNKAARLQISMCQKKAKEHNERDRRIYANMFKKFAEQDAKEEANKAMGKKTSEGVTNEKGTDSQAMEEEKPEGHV
T2 sequence (P42345 2019-2112 limits assumed): as the sequence (P42345 2019-2112 limits assumed) above
Description: as §1

[4] = test system: mTORC1 activity, S6K1 (Thr389) in FKBP12 knock-out 293T cells; experiment: S6K1(Thr389) phosphorylation ELISA in FKBP12 knock-out 293T cells; format: cell-based; settings: 2 hours
Source text: as §2, §3, §4

[5] = test system: mTORC1 activity, S6K1 (Thr389) in WT 293T cells; experiment: S6K1(Thr389) phosphorylation ELISA in wild-type 293T cells; format: cell-based; settings: 2 hours
Description: as §4
S6K1 is a downstream target of mTORC1 and phosphorylation of its rapalog-sensitive Thir389 site is used as a functional readout of mTORC1 activity (Lee, C. H., Inoki, K. and Guan, K. L. (2007). mTOR pathway as a target in tissue hypertrophy. Annu. Rev. Pharmacol. Toxicol. 47, 443-467).

[6] = target: T3, FKBP12.6-rapalog-mTOR (amino acids 2019-2112) ternary complex (Homo sapiens, UniProt P42345+P68106); experiment: SPR ternary complex formation, rapalog bound to FKBP12.6 with mTOR; format: binding; settings: rapalog bound to FKBP with mTOR, read-out: FKBP12.6 apparent affinity KD for ternary complex formation
T3 construct: his^6-mTOR (amino acids 2019-2112) was diluted in buffer; made in house; host or cells: E. coli
T3 sequence (P68106 whole entry, the tested form may be a part): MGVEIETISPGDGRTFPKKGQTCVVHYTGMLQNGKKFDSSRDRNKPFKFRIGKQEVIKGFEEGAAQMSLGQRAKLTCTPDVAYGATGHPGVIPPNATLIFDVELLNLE
T3 sequence (P42345 2019-2112 limits assumed): as the sequence (P42345 2019-2112 limits assumed) above
Description: as §1

FKBP52 = target: T4, FKBP52 (Homo sapiens, UniProt Q02790); experiment: SPR assay, binding affinity to FKBP52; settings: equilibrium dissociation constant
T4 construct: made in house; host or cells: E. coli
T4 sequence (Q02790 1-459): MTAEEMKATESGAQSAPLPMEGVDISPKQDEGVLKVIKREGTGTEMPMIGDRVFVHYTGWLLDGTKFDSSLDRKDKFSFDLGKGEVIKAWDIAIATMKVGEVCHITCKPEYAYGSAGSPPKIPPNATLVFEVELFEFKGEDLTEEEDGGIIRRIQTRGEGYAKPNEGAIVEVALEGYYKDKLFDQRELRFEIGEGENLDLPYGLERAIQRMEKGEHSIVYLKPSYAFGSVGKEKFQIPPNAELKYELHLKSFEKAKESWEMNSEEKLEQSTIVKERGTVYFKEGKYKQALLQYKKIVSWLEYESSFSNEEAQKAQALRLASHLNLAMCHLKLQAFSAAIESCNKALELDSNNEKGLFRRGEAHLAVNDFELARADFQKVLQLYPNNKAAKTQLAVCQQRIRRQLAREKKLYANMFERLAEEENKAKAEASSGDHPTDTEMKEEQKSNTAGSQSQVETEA
Description: N-terminal avi-his6-tagged FKBP fusion proteins were expressed in E. coli and purified with nickel chromatography using standard procedures. Biotinylated his-avi-FKBPs were immobilized on a streptavidin chip using a Biacore 8K (GE Healthcare). To determine the kinetics-affinity of the rapalogs for FKBPs, rapalogs were diluted in DMSO to 50× working concentration. Next, 3.1 uLs of each rapalog solution was added to 150 uLs of buffer (50 mM Tris pH 7.5/150 mM NaCl/0.01% Tween 20/1 mM DTT) in a 384 deep well plate (greiner bio-one/78127) and mixed using a Biomek FX. The rapalog solution gradients (6 concentrations/2 fold dilutions, 3.1-100 nM or 31-1000 nM or 310-10000 nM) were then injected at 45 uL/min for 120 seconds: contact time and dissociation time was 1800 seconds in running buffer (50 mM Tris pH 7.5/150 mM NaCl/0.01% Tween 20/1 mM DTT/2% DMSO). The single-cycle kinetics data were fit to a 1:1 binding model to measure the association rate ka (1/Ms), the dissociation rate kd (1/s) and the affinity KD (M). […] 3.1 uLs of the 500 μM rapalog solutions were added to 150 uLs of the mTOR samples in a 384 deep well plate (greiner bio-one/78127) and mixed using a Biomek FX. The mTOR solution gradients were then injected at 45 uL/min for 120 seconds: contact time and dissociation time was 1800 seconds in running buffer (50 mM Tris pH 7.5/150 mM NaCl/0.01% Tween 20/1 mM DTT/2% DMSO). The single-cycle kinetics data was fit to a 1:1 binding model to measure the association rate ka (1/Ms), the dissociation rate kd (1/s) and the apparent affinity KD (M) for ternary complex formation.
The equilibrium dissociation constants (KD) to FKBP12, FKBP51, and FKBP52 are shown below in Table 6.

[7] = target: T5, FKBP52-rapalog-mTOR (amino acids 2019-2112) ternary complex (Homo sapiens, UniProt P42345+Q02790); experiment: SPR ternary complex formation, rapalog bound to FKBP52 with mTOR; format: binding; settings: rapalog bound to FKBP with mTOR, read-out: FKBP52 apparent affinity KD for ternary complex formation
T5 construct: his^6-mTOR (amino acids 2019-2112) was diluted in buffer; made in house; host or cells: E. coli
T5 sequence (P42345 2019-2112 limits assumed, one chain of several): as the sequence (P42345 2019-2112 limits assumed) above
Description: as §1

| Kd [1] [nM] | Kd [3] [nM] | Kd [6] [nM] | Kd (FKBP52) [nM] | Kd [7] [nM] | SMILES | inhibitory effect (potency) on S6K1 (Thr389), in words [2] | inhibition of S6K1 (Thr389) ([2]; at the highest tested concentration) [%] | de-phosphorylation of S6K1(Thr389) [4] [%] | inhibition of S6K1(Thr389) phosphorylation [5] [%] |
| --- | --- | --- | --- | --- | --- | --- | --- | --- | --- |
| 2 | 52 | 55 | 374 | 36 | CO[C@@H]1C[C@H](C[C@@H](C)[C@@H]2CC[C@H](C)/C=C(\C)[C@@H](O)[C@@H](OC)C(=O)[C@H](C)C[C@H](C)/C=C/C=C/C=C(\C)[C@@H](NS(C)(=O)=O)C[C@@H]3CC[C@@H](C)[C@@](O)(O3)C(=O)C(=O)N3CCCC[C@H]3C(=O)O2)CC[C@H]1O [Compound 2] | efficacious in inhibiting S6K1 (Thr389) | ~90 | ~70 | ~80 |
| 75 | 348 | 47 | 1770 | 253 | CO[C@H]1C[C@@H]2CC[C@@H](C)[C@@](O)(O2)C(=O)C(=O)N2CCCC[C@H]2C(=O)O[C@H]([C@H](C)C[C@@H]2CC[C@@H](OCCO)[C@H](OC)C2)CC(=O)[C@H](C)/C=C(\C)[C@@H](O)[C@@H](OC)C(=O)[C@H](C)C[C@H](C)/C=C/C=C/C=C/1C [RAD001, everolimus, reference compound] | lost almost all it potency | – | ~40 | ~80 |
